Literature values, collected in PMC10035389, “Safety, Tolerability, and Pharmacokinetics of TAK-931, a Cell Division Cycle 7 Inhibitor, in Patients with Advanced Solid Tumors: A Phase I First-in-Human Study” (Cancer Research Communications, 2022).

Details: animal toxicology studies; used as escalation limit; cited from earlier work

## Cc1[nH]ncc1-c1cc2nc([C@@H]3CC4CCN3CC4)[nH]c(=O)c2s1 [TAK-931, simurosertib]
  Cmax threshold for off-target adverse effects (hypotension): 800 ng/mL
